From PMC3577359 (Biochemistry, 2013)
“And” between values parts separate entries of the source, which are not always exact repeats. Equal values may be shown once. Read-outs that look alike come from different tables or passages of the source.

Assays:
holo–AusA = holo–AusA (Staphylococcus aureus, UniProt A0A0H3JX00); conditions: for kcat/KM, fold lower than that of L-Tyr: fixed saturating L-Val, ATP, NADPH
AusA A2 domain = AusA A2 domain (Staphylococcus aureus, UniProt A0A0H3JX00); experiment: ATP–PPi exchange kinetic parameters of AusA, A2 domain; format: biochemical
AusA A1 domain = AusA A1 domain (Staphylococcus aureus, UniProt A0A0H3JX00); experiment: ATP–PPi exchange kinetic parameters of AusA, A1 domain; format: biochemical
AusA A1/A2 = AusA A1/A2 (Staphylococcus aureus, UniProt A0A0H3JX00); experiment: ATP–PPi exchange kinetic parameters of AusA, A1/A2 aggregate; format: biochemical
[1] = system: holo–AusA reductase domain; format: biochemical, Staphylococcus aureus; conditions: for Aureusimine-A Formation kobs / NADPH Consumption kobs: ATP; for Aureusimine-A Formation kobs: LC-MS
AusA (A1–T1–C–A2–T2–R) = AusA (A1–T1–C–A2–T2–R) (Staphylococcus aureus, UniProt A0A0H3JX00); format: biochemical
A2–T2–R = A2–T2–R (Staphylococcus aureus, UniProt A0A0H3JX00); experiment: ATP–PPi exchange assay, inhibition of A2–T2–R tridomain; format: biochemical
A1–T1 = A1–T1 (Staphylococcus aureus, UniProt A0A0H3JX00); experiment: ATP–PPi exchange assay, inhibition of A1–T1 didomain; format: biochemical
[2] = cited from earlier work
calpain = conditions: cited from earlier work
CC[C@H](C)[C@H](N)C(=O)O = experiment: ATP–PPi exchange kinetic parameters of AusA, A1 domain; format: biochemical, Staphylococcus aureus; conditions: other: varied amino acid, non-varied ATP 3 mM; apparent; pH 8.0; 37.0 °C
CC(C)[C@H](N)C(=O)O = experiment: as above; format: biochemical, Staphylococcus aureus; conditions: other: varied amino acid, non-varied ATP 3 mM; apparent; pH 8.0; 37.0 °C
CC(C)C[C@H](N)C(=O)O = experiment: ATP–PPi exchange kinetic parameters of AusA, A1/A2 aggregate; format: biochemical, Staphylococcus aureus; conditions: other: non-varied ATP 3 mM; aggregate of A1 and A2; pH 8.0; 37.0 °C
[3] = system: N[C@@H](Cc1ccc(O)cc1)C(=O)O; experiment: ATP–PPi exchange kinetic parameters of AusA, A2 domain; format: biochemical, Staphylococcus aureus; conditions: other: varied amino acid, non-varied ATP 3 mM; apparent; pH 8.0; 37.0 °C
[4] = system: Nc1ncnc2c1ncn2[C@@H]1O[C@H](COP(=O)(O)OP(=O)(O)OP(=O)(O)O)[C@@H](O)[C@H]1O; experiment: as above; format: biochemical, Staphylococcus aureus; conditions: other: varied ATP, non-varied L-Phe 30 mM; pH 8.0; 37.0 °C
N[C@@H](Cc1ccccc1)C(=O)O = experiment: as above; format: biochemical, Staphylococcus aureus; conditions: other: varied amino acid, non-varied ATP 3 mM; apparent; pH 8.0; 37.0 °C
[5] = system: Nc1ccc(C[C@H](N)C(=O)O)cc1; experiment: as above; format: biochemical, Staphylococcus aureus; conditions: other: varied amino acid, non-varied ATP 3 mM; apparent; pH 8.0; 37.0 °C
[6] = system: Nc1ncnc2c1ncn2[C@@H]1O[C@H](COP(=O)(O)OP(=O)(O)OP(=O)(O)O)[C@@H](O)[C@H]1O; experiment: purified protein, by the assay type; conditions: other: ATP varied, pH 8.0
[7] = substrates L-Val, NADPH (no L-Tyr)

Nc1ccc(C[C@H](N)C(=O)O)cc1 [L-4Aph, L-4-aminophenylalanine]
kcat/KM, fold lower than that of L-Tyr (holo–AusA): 17 fold | decrease in kcat relative to L-Tyr (AusA A2 domain): 30% | increase in KM relative to L-Tyr (AusA A2 domain): 31 fold

CC[C@H](C)[C@H](N)C(=O)O [L-Ile]
exchange rate, fold lower than with L-Val (AusA A1 domain; in the presence of Phe-AMS): ~10 fold

CC(C)C[C@H](N)C(=O)O [L-Leu]
kcat/KM, fold lower than that of L-Tyr (holo–AusA): 302 fold | kcat/KM, fold less than the best substrates (AusA A1/A2): more than 200 fold

N[C@@H](Cc1ccccc1)C(=O)O [L-Phe]
kcat/KM, fold lower than that of L-Tyr (holo–AusA): 2.8 fold

CC(C)[C@H](N)C(=O)O [L-Val, L-Valine]
kcat/KM, fold greater than L-Ile (AusA A1 domain): 49 fold

NC(=O)C1=CN([C@@H]2O[C@H](COP(=O)(O)OP(=O)(O)OC[C@H]3O[C@@H](n4cnc5c(N)ncnc54)[C@H](O)[C@@H]3O)[C@@H](O)[C@H]2O)C=CC1 [NADH]
cofactor use by AusA ([1]; data not shown): unable to use

Nc1ncnc2c1ncn2[C@@H]1O[C@H](COS(=O)(=O)NC(=O)[C@@H](N)Cc2ccccc2)[C@@H](O)[C@H]1O [Phe-AMS, 5′-O-[N-(phenylalanyl)sulfamoyl]adenosine]
consumption of NADPH with the A2-specific inhibitor added ([1]; L-Tyr reaction, data not shown): not observed | Ki (AusA (A1–T1–C–A2–T2–R)): 0.8 ± 0.5 nM | effect on amino acid-dependent ATP–PPi exchange activity (AusA (A1–T1–C–A2–T2–R); 100 μM Phe-AMS, with L-Phe, L-4Aph, L-Tyr and L-Met): eliminates the enzymatic activity | Ki (A2–T2–R): < 4 nM | selectivity factor (A2 over A1–T1) (A2–T2–R): > 10^4 | Ki (A1–T1): > 100000 nM | inhibition of A1–T1 (A1–T1; up to 100 μM): little inhibition

CC(C)[C@H](N)C(=O)NS(=O)(=O)OC[C@H]1O[C@@H](n2cnc3c(N)ncnc32)[C@H](O)[C@@H]1O [Val-AMS, 5′-O-[N-(valinyl)sulfamoyl]adenosine]
Ki (AusA (A1–T1–C–A2–T2–R)): 44 ± 7 nM | activity reduction relative to the uninhibited control (AusA (A1–T1–C–A2–T2–R); 100 μM Val-AMS, with L-Tyr, L-Phe, L-4Aph and L-Leu, off-target inhibition of A2): more than 2 fold | effect on amino acid-dependent ATP–PPi exchange activity (AusA (A1–T1–C–A2–T2–R); 100 μM Val-AMS, with L-Val, L-Ile, L-Cle, L-Ala, L-Cys, L-Tle and L-Met): eliminated | Ki (A2–T2–R): 10000 nM | Ki (A1–T1): 63 ± 5 nM | selectivity factor Ki(A2-T2-R)/Ki(A1-T1) (A1–T1): 158

CC(C)c1ncc(Cc2ccc(O)cc2)[nH]c1=O [compound 1, aureusimine-A]
Aureusimine-A Formation kobs ([1]; substrates L-Tyr, NADPH (no L-Val)): 0 min⁻¹ | Aureusimine-A Formation kobs [1, 7]: 0 min⁻¹ | Aureusimine-A Formation kobs ([1]; substrates L-Val, L-Tyr, NADPH, listed as Aureusimine-A): 0.28 ± 0.01 min⁻¹ | Aureusimine-A Formation kobs ([1]; substrates L-Val, L-Tyr, NADPH, listed as aureusimine-A): 0.28 min⁻¹

CC(C)c1ncc(Cc2ccccc2)[nH]c1=O [compound 2, aureusimine-B]
antibacterial activity [2]: no antibacterial activity was observed | calpain inhibition activity (calpain): ~ 1 μM

AusA A1 domain (Staphylococcus aureus subsp. aureus Mu50)
Km (CC[C@H](C)[C@H](N)C(=O)O): 11.9 ± 0.9 mM | kcat (CC[C@H](C)[C@H](N)C(=O)O): 0.565 ± 0.0183 s⁻¹ | kcat/Km (CC[C@H](C)[C@H](N)C(=O)O): 47 ± 4 M⁻¹ s⁻¹ | Km (CC(C)[C@H](N)C(=O)O): 3.3 ± 0.1 mM | kcat (CC(C)[C@H](N)C(=O)O): 7.683 ± 0.05 s⁻¹ | kcat/Km (CC(C)[C@H](N)C(=O)O): 2330 ± 72 M⁻¹ s⁻¹

AusA A1/A2 (Staphylococcus aureus subsp. aureus Mu50)
Km (CC(C)C[C@H](N)C(=O)O): 24 ± 3 mM | kcat (CC(C)C[C@H](N)C(=O)O): 0.248 ± 0.0167 s⁻¹ | kcat/Km (CC(C)C[C@H](N)C(=O)O): 10 M⁻¹ s⁻¹ and 10.3 M⁻¹ s⁻¹

AusA A2 domain (Staphylococcus aureus subsp. aureus Mu50)
Km [3]: 1.0 ± 0 mM | kcat [3]: 2.15 ± 0.0167 s⁻¹ | kcat/Km [3]: 2150 ± 17 M⁻¹ s⁻¹ | Km [4]: 3.0 ± 0.5 mM | kcat [4]: 1.05 ± 0.117 s⁻¹ | kcat/Km [4]: 350 ± 70 M⁻¹ s⁻¹ | Km (N[C@@H](Cc1ccccc1)C(=O)O): 2.1 ± 0.1 mM | kcat (N[C@@H](Cc1ccccc1)C(=O)O): 0.675 ± 0.01 s⁻¹ | kcat/Km (N[C@@H](Cc1ccccc1)C(=O)O): 321 ± 16 M⁻¹ s⁻¹ | Km [5]: 31 ± 1 mM | kcat [5]: 1.53 ± 0.0333 s⁻¹ | kcat/Km [5]: 49 ± 2 M⁻¹ s⁻¹

NADPH
kobs (holo–AusA; at 0.1 mM NADPH, L-Val, L-Tyr, ATP non-varied): 0.39 min⁻¹ | NADPH Consumption kobs [1, 7]: 0 min⁻¹ | NADPH Consumption kobs ([1]; substrates L-Val, L-Tyr, NADPH, 80 nM holo–AusA, ambient temperature): 2.01 min⁻¹ and 2.01 ± 0.05 min⁻¹

holo–AusA (Staphylococcus aureus subsp. aureus Mu50)
Km ([6]; L-Leu as the non-varied amino acid): 9.7 mM | Km ([6]; L-Tyr as the non-varied amino acid): 0.1 mM
